Some test systems named below: A498 renal; ACHN renal; DMS 273 small cell lung; M19-MEL melanoma; OVCAR-4 ovarian; SK-MEL-28 melanoma; UO-31 renal; MDA-MB-231 breast; PC-3 prostate; NCI/ADR-RES ovarian.
Test in all cases: inhibition of tumour cell growth, NCI panel, 48 h

The structures appear in SMILES notation. Several values for one entry are separate records, joined by “and”; a condition that tells them apart may be missing. Equal entries are not always repeated.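 Interpolation was linear, between the two tested concentrations surrounding the appropriate level; five concentrations were tested over 48 hours in 96-well plates. GI50 = concentration required for 50% inhibition of growth. Definition used: TGI = concentration required for complete inhibition of growth.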 Some results are limits rather than exact numbers.

Consider `CCN(CC)CCOc1ccc(CCc2cc(OC)c(OC)c(OC)c2)cc1`, for which the TGI was 98.7 µM in the experiment with A498 renal; > 100 µM with ACHN renal; 35.8 µM in the experiment with DMS 273 small cell lung; 53.8 µM in the experiment on M19-MEL melanoma; > 100 µM in the experiment with OVCAR-4 ovarian; > 100 µM with SK-MEL-28 melanoma. Besides, the TGI in the experiment on UO-31 renal is > 100 µM.
On to `C[C@]12CCC(=O)C=C1CC[C@@H]1C2CC[C@]2(C)Nc3c(cnn3-c3ccccc3)CC12` (stereo not given in full), for which the TGI with A498 renal, in the experiment on ACHN renal, with DMS 273 small cell lung, in the experiment with M19-MEL melanoma, in the experiment with OVCAR-4 ovarian and with SK-MEL-28 melanoma was > 100 µM each time. The TGI with UO-31 renal was > 100 µM.
`CC(C)CCCC(C)[C@H]1CCC2[C@@H]3CCC4Nc5nocc5C[C@]4(C)C3CC[C@@]21C` (stereo not given in full): the TGI in the experiment on A498 renal was determined as 36.1 µM; in the experiment on ACHN renal it was 28.6 µM; with DMS 273 small cell lung it was 37.3 µM; with M19-MEL melanoma it was 33.7 µM; in the experiment with OVCAR-4 ovarian, 39.3 µM; with UO-31 renal it was 27.9 µM.
As to `O=C1C2C3C=C4c5ccccc5N(c5ccccc5)C4(C2C(=O)N1c1ccc(Cl)cc1)[C@H]1C(=O)N(c2ccc(Cl)cc2)C(=O)[C@@H]31` (stereo not given in full), the TGI in the experiment on A498 renal, in the experiment with DMS 273 small cell lung, in the experiment with M19-MEL melanoma, in the experiment on OVCAR-4 ovarian and in the experiment with UO-31 renal was > 100 µM each time.
As for `Cc1ccc(SSc2ccc(C)cc2C(=O)O)c(C(=O)O)c1`, the TGI with A498 renal, in the experiment with ACHN renal, in the experiment on DMS 273 small cell lung, in the experiment with M19-MEL melanoma, in the experiment on OVCAR-4 ovarian and in the experiment with SK-MEL-28 melanoma was > 100 µM in each case. In addition, in the experiment with UO-31 renal, the TGI was > 100 µM.
`Cc1cc(NCCCCCCNc2cc(C)nc3cc(N(C)C)ccc23)c2ccc(N(C)C)cc2n1`: the TGI with A498 renal was > 100 µM; with ACHN renal it was > 100 µM; in the experiment on DMS 273 small cell lung, 29.5 µM; in the experiment with M19-MEL melanoma it was > 100 µM; in the experiment with OVCAR-4 ovarian, > 100 µM; with SK-MEL-28 melanoma it was > 100 µM. The TGI with UO-31 renal was > 100 µM.
For the molecule `C1=CC=C2NCCCCCCCNC3=CC=CC=CC3=NCCCCCCCN=C2C=C1`, the TGI was > 100 µM with ACHN renal; 39.9 µM with DMS 273 small cell lung; > 100 µM in the experiment with M19-MEL melanoma; > 100 µM in the experiment with OVCAR-4 ovarian; > 100 µM with UO-31 renal.
With `O=C1NC2(CCCCCC2)C2CCCCCCC12O` (stereo not given), the TGI in the experiment on A498 renal, in the experiment with ACHN renal, with DMS 273 small cell lung, with M19-MEL melanoma, with OVCAR-4 ovarian and with SK-MEL-28 melanoma was > 100 µM each time. Besides, in the experiment on UO-31 renal, the TGI was > 100 µM.
For `CC1OC(OC2C[C@](O)(C(=O)CF)Cc3c(O)c4c(c(O)c32)C(=O)c2ccccc2C4=O)CC(N)C1O` (stereo not given in full), the TGI in the experiment with A498 renal was found to be 1.28 µM; with ACHN renal, 0.0777 µM; in the experiment with DMS 273 small cell lung, 0.104 µM; in the experiment with M19-MEL melanoma, 0.248 µM; with MDA-MB-231 breast, 0.283 µM; in the experiment on OVCAR-4 ovarian, 0.86 µM. Moreover, the TGI with PC-3 prostate is 0.354 µM; with SK-MEL-28 melanoma, 1.91 µM; with UO-31 renal, 1.02 µM.
Turning to `COc1ccc2c(c1)[n+]([O-])c(-c1ccc(OC)c(OC)c1)c(N)[n+]2[O-]`, the TGI is > 100 µM in the experiment with A498 renal; > 100 µM with ACHN renal; > 100 µM in the experiment with DMS 273 small cell lung; > 100 µM in the experiment on M19-MEL melanoma; > 100 µM in the experiment with OVCAR-4 ovarian; 69.4 µM in the experiment on SK-MEL-28 melanoma. The TGI in the experiment on UO-31 renal was > 100 µM.
`c1ccc(C(c2ccccc2)c2cccnc2)cc1`: the TGI with A498 renal, with ACHN renal, in the experiment with DMS 273 small cell lung, with M19-MEL melanoma, with OVCAR-4 ovarian and in the experiment on SK-MEL-28 melanoma was > 100 µM each time. In addition, the TGI with UO-31 renal is > 100 µM.
For the molecule `CC(=O)NNc1nc(C)c(C(=O)/C=C/c2ccccc2Cl)s1`, the TGI in the experiment on A498 renal, with ACHN renal, in the experiment with DMS 273 small cell lung, in the experiment on M19-MEL melanoma, with SK-MEL-28 melanoma and in the experiment on UO-31 renal was > 100 µM throughout.
As for `O=c1[nH]nc2ccccc2c1Cc1ccccc1`, the TGI in the experiment with A498 renal, in the experiment with ACHN renal, in the experiment on DMS 273 small cell lung, in the experiment with M19-MEL melanoma, in the experiment on OVCAR-4 ovarian and in the experiment on SK-MEL-28 melanoma was > 100 µM throughout. Further, the TGI in the experiment with UO-31 renal is > 100 µM.
Take `O=C(CC(=O)C1=CNc2ccccc2S1)C(=O)Nc1ccc(Cl)cc1`: the TGI in the experiment on A498 renal, in the experiment with ACHN renal, with DMS 273 small cell lung, in the experiment with M19-MEL melanoma, in the experiment with OVCAR-4 ovarian and in the experiment with SK-MEL-28 melanoma was > 50 µM in each case. In addition, in the experiment on UO-31 renal, the TGI was > 50 µM.
Regarding `O=C1Nc2nc3ccccc3n2N=C2CCCC12` (stereo not given), the TGI in the experiment on A498 renal, in the experiment with ACHN renal, with DMS 273 small cell lung, in the experiment with M19-MEL melanoma, with OVCAR-4 ovarian and in the experiment on SK-MEL-28 melanoma was > 100 µM each time. For the same molecule, the TGI in the experiment with UO-31 renal was > 100 µM.
With `COCC(O)Cn1ccnc1[N+](=O)[O-]` (stereo not given), the TGI with ACHN renal, in the experiment with DMS 273 small cell lung, with M19-MEL melanoma, in the experiment with SK-MEL-28 melanoma and with UO-31 renal was > 100 µM throughout.
Take `CCOC1=C2C(=O)OC(=O)C2C2CCCCC2=C1` (stereo not given): the TGI with DMS 273 small cell lung, in the experiment with M19-MEL melanoma, in the experiment on OVCAR-4 ovarian, in the experiment on SK-MEL-28 melanoma and in the experiment on UO-31 renal was > 100 µM each time.
As to `COc1cccc2c1C(=O)c1c(O)c3c(c(O)c1C2=O)CC(O)(C(O)CO)CC3OC1CC(N2CCOCC2)C(O)C(C)O1` (stereo not given), the GI50 is 0.0139 µM with A498 renal; < 0.001 µM in the experiment on M19-MEL melanoma; 0.0145 µM with OVCAR-4 ovarian; 0.0221 µM in the experiment on SK-MEL-28 melanoma; 0.00398 µM and 0.0213 µM in the experiment on UO-31 renal. The TGI with ACHN renal is 0.122 µM; with DMS 273 small cell lung, 0.0109 µM and 0.0429 µM; in the experiment on MDA-MB-231 breast, 0.243 µM; in the experiment on NCI/ADR-RES ovarian, 0.31 µM; in the experiment with PC-3 prostate it was 0.144 µM; with SK-MEL-28 melanoma it was 0.0168 µM and 0.0592 µM. For the same molecule, the TGI in the experiment on UO-31 renal was 0.0314 µM and 0.0652 µM.
As for `Cc1oc2c(C)c3oc(=O)cc(C)c3cc2c1CN1C(=O)C2OCCOCCOCCOCCOCCO[C@H]2C1=O` (stereo not given in full), the TGI with A498 renal, in the experiment on ACHN renal, in the experiment with DMS 273 small cell lung, in the experiment on M19-MEL melanoma, in the experiment on OVCAR-4 ovarian and in the experiment on UO-31 renal was > 100 µM each time.
`Cc1cc2c(C)nn(Cc3ccccc3)c2c(C(N)=O)c1C`: the TGI in the experiment with A498 renal, in the experiment with ACHN renal, with DMS 273 small cell lung, in the experiment with M19-MEL melanoma, in the experiment on OVCAR-4 ovarian and in the experiment on SK-MEL-28 melanoma was > 100 µM each time. Besides, in the experiment on UO-31 renal, the TGI was > 100 µM.
As to `COc1cc(NC(C)CCCN)c2ncccc2c1` (stereo not given), the GI50 in the experiment with A498 renal is 30.6 µM and 76.7 µM; with SK-MEL-28 melanoma, 22.1 µM and 74 µM; in the experiment on UO-31 renal, 15.2 µM and 42.9 µM. The TGI in the experiment on A498 renal, in the experiment with ACHN renal, in the experiment on DMS 273 small cell lung, in the experiment on M19-MEL melanoma, with MDA-MB-231 breast and with NCI/ADR-RES ovarian was > 100 µM each time. Also, the TGI in the experiment on OVCAR-4 ovarian was > 100 µM; in the experiment with PC-3 prostate, > 100 µM; in the experiment with SK-MEL-28 melanoma it was 47.5 µM and > 100 µM; in the experiment on UO-31 renal it was 57.8 µM and > 100 µM.
Turning to `OCC1C(/C=C/c2ccoc2)ON2CCCC12` (stereo not given), the TGI in the experiment on ACHN renal, with DMS 273 small cell lung, with M19-MEL melanoma, in the experiment with OVCAR-4 ovarian, in the experiment with SK-MEL-28 melanoma and in the experiment on UO-31 renal was > 100 µM in each case.

These data come from PubChem BioAssay (NCI).
